Structures can show the parent of a compound that is named as a salt.
What was measured:
CT26 tumors = assay: P4N treatments in vivo, CT-26 tumors in nude mice; parameters: species or system nude mice (BALB/c/nu); details: immunodeficient nude mice, one intratumoral injection of 2.5 mg/kg or 5 mg/kg
Experimental: P4N treatments in vivo. BALB/c or BALB/c/nu mice (6 week old) were inoculated subcutaneously with 1×10^6 CT-26 cells in 100 μl PBS. When the average tumor mass reached 50 mm^3, the animals were treated with 2.5 mg/kg or 5 mg/kg of P4N in one intratumoral injection. Subsequently, the tumor volumes were measured using a caliper every 2 days, and the volumes were calculated using the following formula: volume (mm^3)=length×width×height. Before sacrifice, the sera of the mice were collected for experimental use.

mouse splenocytes = assay: Activin A and BAFF expression in mouse splenocytes; format: cell-based; details: low dose P4N
Experimental: FIGS. 14A-14C depict P4N-induced mouse B cell proliferation via the Activin A/BAFF pathway. (A) The proliferation of P4N-treated splenocytes. Splenocytes isolated from three mice were individually treated with increasing concentrations of P4N for 48 h and their proliferation was analyzed by MTT assay. The data are reported as the proliferation index. […] (B) The proliferation of B cells in mouse splenocytes treated with low doses of P4N. After treatment with P4N for 48 h, B-cells were identified by CD19 surface marker staining and the cell number was calculated following a flow cytometer analysis. […] Levels of Activin A and BAFF transcripts were measured by RT-PCR. Each sample obtained from 3 different mice; N, no treatment; P, P4N-treatment.
Reverse transcription PCR. Human PBMCs or THP-1 cells were treated with P4N, and then the mRNA expression of INHBA and BAFF in these cells was measured by reverse transcription PCR. Briefly, total cellular RNA was extracted with Trizol reagent (Invitrogen) and reverse-transcribed into cDNA using the Superscript RT-kit (Invitrogen). The cDNA of INHBA and BAFF were then amplified by PCR. GAPDH cDNA in the samples was used to normalize the loading amounts in each reaction. Finally, PCR products were resolved by electrophoresis on 2% agarose gels and visualized with ethidium bromide.

LTA4H = molecular target: T1, LTA4H (Homo sapiens, UniProt P09960); assay: LTB4 ELISA in THP-1 culture media; format: cell-based; details: THP-1, 3 μM P4N
T1 construct: THP-1 cells (1×10^6 cells/ml/well) in a 24-well culture plate; endogenous in cells; host or cells: THP-1 cells (BCRC, Hsinchu, Taiwan)
T1 sequence (P09960 1-611): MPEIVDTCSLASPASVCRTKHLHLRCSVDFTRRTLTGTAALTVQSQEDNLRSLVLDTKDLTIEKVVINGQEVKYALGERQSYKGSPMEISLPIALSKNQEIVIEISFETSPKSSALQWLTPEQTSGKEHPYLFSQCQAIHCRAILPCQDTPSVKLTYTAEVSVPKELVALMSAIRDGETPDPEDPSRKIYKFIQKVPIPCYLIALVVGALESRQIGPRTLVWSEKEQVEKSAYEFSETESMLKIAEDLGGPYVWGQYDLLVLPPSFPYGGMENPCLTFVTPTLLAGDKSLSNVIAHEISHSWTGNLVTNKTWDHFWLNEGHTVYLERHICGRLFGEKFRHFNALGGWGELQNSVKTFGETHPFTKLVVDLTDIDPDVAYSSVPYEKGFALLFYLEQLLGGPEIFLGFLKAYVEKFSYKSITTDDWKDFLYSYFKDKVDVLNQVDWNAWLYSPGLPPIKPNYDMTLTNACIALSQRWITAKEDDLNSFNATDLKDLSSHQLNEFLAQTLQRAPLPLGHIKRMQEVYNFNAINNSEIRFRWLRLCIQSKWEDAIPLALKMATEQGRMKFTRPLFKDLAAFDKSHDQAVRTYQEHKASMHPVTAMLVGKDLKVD
Experimental: ELISA assays. THP-1 cells (1×10^6 cells/ml/well) in a 24-well culture plate were pretreated with 10 μM bestatin (a LTA4H inhibitor, Sigma-Aldrich) for 2 h and then treated with 3 μM P4N for various time intervals. The levels of LTB4 in the culture media were determined by the LTB4 (Enzo Life Sciences, Farmingdale, N.Y.) (R&D) ELISA Kits. The amount of TNF-α, IL-8 and Activin A in cultured media were measured in a similar manner.

human PBMCs = assay: PBMC proliferation assay; format: cell-based; details: 48 h
Experimental: PBMC proliferation assay. Two hundred microliters of PBMCs (5×10^4 cells/ml) were seeded in each well of a 96-well culture plate and treated with increasing concentrations of P4N (0.38, 0.75, 1.5, 3 or 6 μM) for 48 h. The number of viable cells was evaluated by MTT assay and a cell proliferation index was calculated as follows: Proliferation index=(OD595 of sample)/(OD595 of the untreated cells)×100%. PBMCs were also treated with or without P4N (0.75, 1.5 or 3 μM) for 48 h, and probed with anti-CD20 antibodies (Roche, Mannheim, Germany) and FITC-conjugated goat anti-human IgG polyclonal antibodies (SouthernBiotech, Birmingham, Ala.). The percentage of B cells in treated PBMCs was determined by flow cytometry (BD Biosciences, Mountain View, Calif.), and the indices of B cell proliferation were calculated as follows: (the number of PBMCs×the percentage of B cells in treated PBMCs)/(the number of PBMCs×the percentage of B cells in untreated PBMCs).

SMILES: C[C@H](Cc1ccc(OCCN2CCCCC2)c(OCCN2CCCCC2)c1)[C@@H](C)Cc1ccc(OCCN2CCCCC2)c(OCCN2CCCCC2)c1 [P4N, meso-2,3-dimethyl-1,4-bis(3,4-[2-(piperidino)ethoxyphenyl])butane tetrakishydrochloride salt]
- growth of CT26 tumors (CT26 tumors): had no effect
- gene expression and protein production of Activin A and BAFF (mouse splenocytes): increase their gene expression and protein production
- production of LTA4H reaction product LTB4 (LTA4H): increased the production
- increase of PBMC proliferation (human PBMCs; depending on the dose of P4N (0.38-6 μM), MTT): 10-35%
- proliferation of the B cell population in human PBMCs (human PBMCs; flow cytometry): significantly increased
